The source of these data is patent publication US20250382346A1, “NEURONAL PROMOTERS AND USES THEREOF” (priority 2023, published 2025).

A short description of series [1]: Locomotion test in naïve macaques (no viral injection). The series is classed as in vivo. As to conditions: naive macaques, n=3, not significant.
The next series deals with T1, rM3Ds (Rattus norvegicus, UniProt P08483, A177S/A238G/A489L/DEL261-437/DEL441-478/E258S/I253V/I483M/INS256[…]/K178L/K182A/K255R/K484R/K486H/L173F/L482A/M480V/R171S/R176Q/R179M/S481M/T174R/T181R/T257A/Y148C).
T1 sequence (P08483 with tags, fused parts or gaps Y148C/R171S/L173F/T174R/R176Q/A177S/K178L/R179M/T181R/K182A/A238G/I253V/K255R/INS256[…]/T257A/E258S/DEL261-437/DEL441-478/M480V/S481M/L482A/I483M/K484R/K486H/A489L): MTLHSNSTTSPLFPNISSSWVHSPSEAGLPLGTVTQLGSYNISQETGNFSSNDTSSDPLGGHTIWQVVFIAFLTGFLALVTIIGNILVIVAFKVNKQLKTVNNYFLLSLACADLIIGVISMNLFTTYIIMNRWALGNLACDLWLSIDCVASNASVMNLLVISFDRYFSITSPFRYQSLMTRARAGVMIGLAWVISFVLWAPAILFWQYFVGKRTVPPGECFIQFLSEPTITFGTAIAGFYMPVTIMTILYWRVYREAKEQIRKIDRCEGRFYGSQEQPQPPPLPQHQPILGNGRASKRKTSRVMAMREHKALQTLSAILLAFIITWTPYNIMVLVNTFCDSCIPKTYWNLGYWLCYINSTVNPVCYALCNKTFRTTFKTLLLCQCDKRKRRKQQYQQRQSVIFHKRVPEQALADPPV
The series is described as follows: Striatal slice whole-cell recordings of retrogradely labeled D1-MSNs, rM3Ds. Conditions: AAV8R12-G88P7-rM3Ds-2A-EYFP; CNO 10 μM; basal firing rate and resting membrane potential unaffected. The series is classed as cell-based, mice. Set-up: 2A-EYFP (C); expressed in transfected cells; host or cells: neurons (striatal D1-MSNs) of mice or cynomolgus macaques, transduced in vivo by nigral AAV8R12-G88P7-rM3Ds-2A-EYFP. From the text:
Mice from different groups were anesthetized with […] isoflurane, and then decapitated. The brain was quickly extracted and placed in ice-cold N-methyl-D-glucamine (NMDG) cutting solution containing (in mM): 92 NMDG, 2.5 KCl, 25 NaHCO3, 1.25 NaH2PO4, 4.5 D-Glucose, 20 HEPES, 5 L-ascorbic acid, 3 Na-pyruvate, 2 Thiourea, 10 MgSO4, 0.5 CaCl2). The pH was adjusted to 7.2±0.1 using HCl and the osmolarity was adjusted to 305±5 mosmol/L using NMDG. The solution was bubbled with 95% O2/5% CO2 prior to use. Coronal striatum slices were cut in 250-[…]m thickness with a vibratome slicer (Leica, VT1200 S), and then incubated in artificial cerebrospinal fluid (aCSF) saturated with 95% O2/5% CO2 for at least 45 min at 37° C. before recording. The aCSF contains (in mM) 125 NaCl, 1.25 KCl, 25 NaHCO3, 1.25 KH2PO4, 25 D-Glucose, 2 CaCl2) and 1 MgCl2, supplemented with 2 mM Na-pyruvate, 3 mM Myo-inositol and 0.4 mM L-ascorbic acid.
The acute striatum slice was transferred to the recording chamber with a constant perfusion of oxygenized aCSF at the rate of 3 ml/min. Neurons were visualized using an upright microscope (Olympus, BX-51) with a 40× water immersion objective at room temperature (˜25° C.). […] Neurons were quickly visualized under fluorescence microscope and then patch clamp were achieved under infrared light illumination and CCD camera. […]

SMILES strings stand for the structures.

Regarding `C[N+]1([O-])CCN(C2=Nc3cc(Cl)ccc3Nc3ccccc32)CC1` [CNO, Clozapine-N-oxide], the “percentage of contraversive and ipsiversive rotation (FIG. 11C), mean±SEM” value in series [1] (saline 0.767±0.4296) stood at 0.8384±0.4152. Further, the “speed of contraversive rotations (FIG. 11G), mean±SEM” value in series [1] (saline 39.07±5.889) worked out at 39.63±7.092. The “speed of ipsiversive rotations (FIG. 11H), mean±SEM” value in series [1] (saline 41.49±3.96) amounted to 42.79±4.705. For the same compound, the “total distance (FIG. 11F), mean±SEM” value in series [1] (saline 53.12±15.3) is recorded as 59.48±18.65. The “time spending in the higher portion of the observing cages (FIG. 11D), mean±SEM” value in series [1] (saline 55.73±2.64) was determined as 60.43±4.542. For the same compound, the “immobile time (FIG. 11E), mean±SEM” value in series [1] (saline 149.9±21.61) is listed as 149.8±22.65. At rM3Ds, the “excitability of labeled striatal MSNs upon CNO” value is given as “enhancement in the excitability”.
